ChEMBL document CHEMBL5365526 (J Med Chem, 2023)
Calls of active or inactive are those of the source. No cut-off for these calls is given here.

Biological target: von Hippel-Lindau disease tumor suppressor/Mitogen-activated protein kinase 7 (Homo sapiens, UniProt Q13164+P40337)
Assay: PROTAC activity at VHL/ERK5 in human A-375 cells assessed as induction of ERK5 degradation at 100 nM incubated for 24 hrs by western blot analysis
Assay type: cell-based
Conditions: not given

von Hippel-Lindau disease tumor suppressor/Mitogen-activated protein kinase 7, sequence (P40337 whole entry partner): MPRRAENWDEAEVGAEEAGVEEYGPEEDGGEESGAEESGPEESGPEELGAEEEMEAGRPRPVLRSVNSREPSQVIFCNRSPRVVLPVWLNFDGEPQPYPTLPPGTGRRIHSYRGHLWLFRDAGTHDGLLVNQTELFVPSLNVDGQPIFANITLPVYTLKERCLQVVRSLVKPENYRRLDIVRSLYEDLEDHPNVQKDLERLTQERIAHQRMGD
von Hippel-Lindau disease tumor suppressor/Mitogen-activated protein kinase 7, sequence (Q13164 2-816 limits assumed): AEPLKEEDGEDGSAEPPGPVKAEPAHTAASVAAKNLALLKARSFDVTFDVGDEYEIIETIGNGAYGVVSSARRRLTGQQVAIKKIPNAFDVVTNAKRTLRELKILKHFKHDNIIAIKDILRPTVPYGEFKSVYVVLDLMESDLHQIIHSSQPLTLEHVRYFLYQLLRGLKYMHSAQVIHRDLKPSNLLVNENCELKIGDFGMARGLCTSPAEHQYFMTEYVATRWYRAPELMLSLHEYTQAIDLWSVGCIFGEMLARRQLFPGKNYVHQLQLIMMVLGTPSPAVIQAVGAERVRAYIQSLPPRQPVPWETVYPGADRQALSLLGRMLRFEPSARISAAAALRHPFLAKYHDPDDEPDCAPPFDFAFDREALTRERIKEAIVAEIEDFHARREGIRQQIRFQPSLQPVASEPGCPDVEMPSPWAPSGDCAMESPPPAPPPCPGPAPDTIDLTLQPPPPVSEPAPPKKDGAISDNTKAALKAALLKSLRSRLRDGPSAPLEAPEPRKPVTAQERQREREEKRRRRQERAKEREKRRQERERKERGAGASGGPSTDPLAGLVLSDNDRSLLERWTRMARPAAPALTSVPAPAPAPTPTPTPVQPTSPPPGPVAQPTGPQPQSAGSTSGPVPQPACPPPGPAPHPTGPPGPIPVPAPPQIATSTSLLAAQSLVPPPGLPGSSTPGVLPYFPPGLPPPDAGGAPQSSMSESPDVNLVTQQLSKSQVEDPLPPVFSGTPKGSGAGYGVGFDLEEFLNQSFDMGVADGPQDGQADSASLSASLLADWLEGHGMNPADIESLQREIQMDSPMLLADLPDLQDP

Activity	Structure (SMILES)
inactive	COc1cc(NC(=O)CNc2cccc3c2C(=O)N(C2CCC(=O)NC2=O)C3=O)ccc1Nc1ncc2c(n1)N(C)c1ccccc1C(=O)N2C (centres undefined)
inactive	COc1cc(NC(=O)NCCCCCNc2cccc3c2C(=O)N(C2CCC(=O)NC2=O)C3=O)ccc1Nc1ncc2c(n1)N(C)c1ccccc1C(=O)N2C (centres undefined)
Active	COc1cc(N2CCN(CCCCCCCCCC(=O)N[C@H](C(=O)N3C[C@H](O)C[C@H]3C(=O)N[C@@H](C)c3ccc(-c4scnc4C)cc3)C(C)(C)C)CC2)ccc1Nc1ncc2c(n1)N(C)c1ccccc1C(=O)N2C
Active	COc1cc(N2CCN(CCCCC(=O)N[C@H](C(=O)N3C[C@H](O)C[C@H]3C(=O)N[C@@H](C)c3ccc(-c4scnc4C)cc3)C(C)(C)C)CC2)ccc1Nc1ncc2c(n1)N(C)c1ccccc1C(=O)N2C
inactive	COc1cc(NC(=O)NCCOCCNc2cccc3c2C(=O)N(C2CCC(=O)NC2=O)C3=O)ccc1Nc1ncc2c(n1)N(C)c1ccccc1C(=O)N2C (centres undefined)
inactive	COc1cc(NC(=O)NCCCNc2cccc3c2C(=O)N(C2CCC(=O)NC2=O)C3=O)ccc1Nc1ncc2c(n1)N(C)c1ccccc1C(=O)N2C (centres undefined)
Active	COc1cc(N2CCN(CCOCCOCCCN[C@H](C(=O)N3C[C@H](O)C[C@H]3C(=O)N[C@@H](C)c3ccc(-c4scnc4C)cc3)C(C)(C)C)CC2)ccc1Nc1ncc2c(n1)N(C)c1ccccc1C(=O)N2C
Active	COc1cc(N2CCN(CCCCCCCC(=O)N[C@H](C(=O)N3C[C@H](O)C[C@H]3C(=O)N[C@@H](C)c3ccc(-c4scnc4C)cc3)C(C)(C)C)CC2)ccc1Nc1ncc2c(n1)N(C)c1ccccc1C(=O)N2C
inactive	COc1cc(NC(=O)NCCOCCOCCOCCNc2cccc3c2C(=O)N(C2CCC(=O)NC2=O)C3=O)ccc1Nc1ncc2c(n1)N(C)c1ccccc1C(=O)N2C (centres undefined)
Active	COc1cc(N2CCN(CCCCCCCCC(=O)N[C@H](C(=O)N3C[C@H](O)C[C@H]3C(=O)N[C@@H](C)c3ccc(-c4scnc4C)cc3)C(C)(C)C)CC2)ccc1Nc1ncc2c(n1)N(C)c1ccccc1C(=O)N2C
inactive	COc1cc(NC(=O)CCCCCCCCCCNc2cccc3c2C(=O)N(C2CCC(=O)NC2=O)C3=O)ccc1Nc1ncc2c(n1)N(C)c1ccccc1C(=O)N2C (centres undefined)
Active	COc1cc(N2CCN(CCOCCNc3cccc4c3C(=O)N(C3CCC(=O)NC3=O)C4=O)CC2)ccc1Nc1ncc2c(n1)N(C)c1ccccc1C(=O)N2C (centres undefined)
Active	COc1cc(N2CCC(OCCCCCC(=O)N[C@H](C(=O)N3C[C@H](O)C[C@H]3C(=O)N[C@@H](C)c3ccc(-c4scnc4C)cc3)C(C)(C)C)CC2)ccc1Nc1ncc2c(n1)N(C)c1ccccc1C(=O)N2C
inactive	COc1cc(NC(=O)NCCCCNc2cccc3c2C(=O)N(C2CCC(=O)NC2=O)C3=O)ccc1Nc1ncc2c(n1)N(C)c1ccccc1C(=O)N2C (centres undefined)
Active	COc1cc(N2CCN(CCCCCC(=O)N[C@H](C(=O)N3C[C@H](O)C[C@H]3C(=O)N[C@@H](C)c3ccc(-c4scnc4C)cc3)C(C)(C)C)CC2)ccc1Nc1ncc2c(n1)N(C)c1ccccc1C(=O)N2C
Active	COc1cc(C(=O)N2CCN(CCCCCC(=O)N[C@H](C(=O)N3C[C@H](O)C[C@H]3C(=O)N[C@@H](C)c3ccc(-c4scnc4C)cc3)C(C)(C)C)CC2)ccc1Nc1ncc2c(n1)N(C)c1ccccc1C(=O)N2C
inactive	COc1cc(NC(=O)NCCOCCOCCNc2cccc3c2C(=O)N(C2CCC(=O)NC2=O)C3=O)ccc1Nc1ncc2c(n1)N(C)c1ccccc1C(=O)N2C (centres undefined)
inactive	COc1cc(N2CCN(C(=O)CCCCC#Cc3cccc4c3CN(C3CCC(=O)NC3=O)C4=O)CC2)ccc1Nc1ncc2c(n1)N(C)c1ccccc1C(=O)N2C (centres undefined)
Active	COc1cc(N2CCN(CCOCC#Cc3cccc4c3CN(C3CCC(=O)NC3=O)C4=O)CC2)ccc1Nc1ncc2c(n1)N(C)c1ccccc1C(=O)N2C (centres undefined)
inactive	COc1cc(NC(=O)NCCCCCCNc2cccc3c2C(=O)N(C2CCC(=O)NC2=O)C3=O)ccc1Nc1ncc2c(n1)N(C)c1ccccc1C(=O)N2C (centres undefined)
inactive	COc1cc(C(=O)N2CCN(C(=O)CCCCC#Cc3cccc4c3CN(C3CCC(=O)NC3=O)C4=O)CC2)ccc1Nc1ncc2c(n1)N(C)c1ccccc1C(=O)N2C (centres undefined)
Active	COc1cc(N2CCN(CCCCCCCCCCC(=O)N[C@H](C(=O)N3C[C@H](O)C[C@H]3C(=O)N[C@@H](C)c3ccc(-c4scnc4C)cc3)C(C)(C)C)CC2)ccc1Nc1ncc2c(n1)N(C)c1ccccc1C(=O)N2C
inactive	COc1cc(NC(=O)CCCCCn2cc(CCNc3cccc4c3C(=O)N(C3CCC(=O)NC3=O)C4=O)nn2)ccc1Nc1ncc2c(n1)N(C)c1ccccc1C(=O)N2C (centres undefined)

Biological target: Mitogen-activated protein kinase 7 (Homo sapiens, UniProt Q13164)
Assay: Inhibition of ERK5 (unknown origin) by ADP-Glo kinase assay
Conditions: not given

Mitogen-activated protein kinase 7, sequence (Q13164 whole entry): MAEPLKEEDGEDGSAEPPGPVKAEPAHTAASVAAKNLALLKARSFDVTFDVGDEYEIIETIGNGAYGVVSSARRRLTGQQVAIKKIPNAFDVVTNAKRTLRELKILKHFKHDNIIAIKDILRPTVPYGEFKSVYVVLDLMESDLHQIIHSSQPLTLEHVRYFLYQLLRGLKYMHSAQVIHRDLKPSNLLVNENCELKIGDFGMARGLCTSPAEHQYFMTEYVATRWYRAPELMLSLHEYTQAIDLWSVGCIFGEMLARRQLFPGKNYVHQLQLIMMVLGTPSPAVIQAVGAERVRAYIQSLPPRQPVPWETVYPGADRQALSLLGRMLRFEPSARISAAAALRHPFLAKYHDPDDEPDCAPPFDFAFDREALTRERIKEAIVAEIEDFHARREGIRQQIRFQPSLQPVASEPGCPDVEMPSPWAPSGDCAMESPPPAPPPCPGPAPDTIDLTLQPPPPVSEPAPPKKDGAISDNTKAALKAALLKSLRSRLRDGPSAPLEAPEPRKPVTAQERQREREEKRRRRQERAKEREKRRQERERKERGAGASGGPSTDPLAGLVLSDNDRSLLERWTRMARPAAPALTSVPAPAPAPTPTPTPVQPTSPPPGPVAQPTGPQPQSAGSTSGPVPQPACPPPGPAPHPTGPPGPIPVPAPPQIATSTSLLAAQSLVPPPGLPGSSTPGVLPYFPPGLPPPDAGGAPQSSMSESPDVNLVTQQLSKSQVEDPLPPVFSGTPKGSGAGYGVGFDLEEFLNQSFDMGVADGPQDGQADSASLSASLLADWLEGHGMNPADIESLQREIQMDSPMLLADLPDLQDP

IC50 [nM]	Structure (SMILES)
10.1	COc1cc(N2CCNCC2)ccc1Nc1ncc2c(n1)N(C)c1ccccc1C(=O)N2C
67.1	COc1cc(N2CCN(CCCCCCCC(=O)N[C@H](C(=O)N3C[C@H](O)C[C@H]3C(=O)N[C@@H](C)c3ccc(-c4scnc4C)cc3)C(C)(C)C)CC2)ccc1Nc1ncc2c(n1)N(C)c1ccccc1C(=O)N2C
27.1	CCOC(=O)CCCCCCN1CCN(c2ccc(Nc3ncc4c(n3)N(C)c3ccccc3C(=O)N4C)c(OC)c2)CC1

Tested on: not listed separately
Assay: Inhibition of M2 macrophage development in PMA-differentiated human THP-1 cells assessed as CD206 surface expression at 5 uM incubated for 48 hrs by flow cytometry (reference value: 53.4%)
Assay type: functional
Design: scale not given: the % may be the effect or the level left
Conditions: not given

Structure (SMILES)	Activity [%]
CCOc1cc(N2CCC(O)CC2)ccc1Nc1ncc2c(n1)N(C)c1ccccc1C(=O)N2C	44.5

Tested on: A-375
Assay: Inhibition of cell colony formation in human A-375 cells at 5 uM cultured in 8% FBS and measured after 7 days in presence of LPS by crystal violet staining based analysis
Assay type: functional
Conditions: time 7.0 day

Structure (SMILES)	inhibition
CCOc1cc(N2CCC(O)CC2)ccc1Nc1ncc2c(n1)N(C)c1ccccc1C(=O)N2C	Active

Tested on: HCT-116
Assay: Inhibition of cell colony formation in human HCT-116 cells at 5 uM cultured in 8% FBS and measured after 7 days in presence of LPS by crystal violet staining based analysis
Assay type: functional
Conditions: time 7.0 day

Structure (SMILES)	inhibition
CCOc1cc(N2CCC(O)CC2)ccc1Nc1ncc2c(n1)N(C)c1ccccc1C(=O)N2C	Active
